Experimental findings from ChEMBL document CHEMBL4261509, “Insight into the complete substrate-binding pocket of ThiT by chemical and genetic mutations” (Medchemcomm, 2017) are described below.

Assay [1] deals with T1, Thiamine transporter ThiT (Lactococcus lactis subsp. cremoris (strain MG1363), UniProt A2RI47).
T1 sequence (A2RI47 whole entry): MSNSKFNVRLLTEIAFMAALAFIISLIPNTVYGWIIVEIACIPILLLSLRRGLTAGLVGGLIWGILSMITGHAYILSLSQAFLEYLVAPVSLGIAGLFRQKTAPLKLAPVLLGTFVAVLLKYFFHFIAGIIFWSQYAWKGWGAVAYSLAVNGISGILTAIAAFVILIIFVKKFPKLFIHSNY
Description: Binding affinity to wild-type Lactococcus lactis MG1363 N-terminal His8-tagged ThiT expressed in Lactococcus lactis NZ9000 incubated for 10 secs measured over 15 secs by fluorescence spectrophotometric method.

Assay [2] addresses T1, Thiamine transporter ThiT. The assay can be described thus: Binding affinity to wild-type Lactococcus lactis MG1363 N-terminal His8-tagged ThiT expressed in Lactococcus lactis NZ9000 by isothermal calorimetric titration method. In general terms: In ITC the heat of successive injections is recorded.
For assay [3], the target named is Thiamine transporter ThiT (Lactococcus lactis subsp. cremoris (strain MG1363), UniProt A2RI47, H125N). The assay can be described thus: Binding affinity to Lactococcus lactis MG1363 N-terminal His8-tagged ThiT His125Asn mutant expressed in Lactococcus lactis NZ9000 by isothermal calorimetric titration method.
Assay [4] deals with Thiamine transporter ThiT (Lactococcus lactis subsp. cremoris (strain MG1363), UniProt A2RI47, W34A). Description: Binding affinity to Lactococcus lactis MG1363 N-terminal His8-tagged ThiT Trp34Ala mutant expressed in Lactococcus lactis NZ9000 incubated for 5 secs measured over 20 secs by fluorescence spectrophotometric method.
Assay [5] deals with Thiamine transporter ThiT (Lactococcus lactis subsp. cremoris (strain MG1363), UniProt A2RI47, E84D). The assay can be described thus: Binding affinity to Lactococcus lactis MG1363 N-terminal His8-tagged ThiT Glu84Asp mutant expressed in Lactococcus lactis NZ9000 by isothermal calorimetric titration method.
Assay [6] addresses Thiamine transporter ThiT (Lactococcus lactis subsp. cremoris (strain MG1363), UniProt A2RI47, E84Q). The assay can be described thus: Binding affinity to Lactococcus lactis MG1363 N-terminal His8-tagged ThiT Glu84Gln mutant expressed in Lactococcus lactis NZ9000 by isothermal calorimetric titration method.
The target in assay [7] is Thiamine transporter ThiT (Lactococcus lactis subsp. cremoris (strain MG1363), UniProt A2RI47, E84A). The assay can be described thus: Binding affinity to Lactococcus lactis MG1363 N-terminal His8-tagged ThiT Glu84Ala mutant expressed in Lactococcus lactis NZ9000 by isothermal calorimetric titration method.
Assay [8] deals with Thiamine transporter ThiT (Lactococcus lactis subsp. cremoris (strain MG1363), UniProt A2RI47, H125A). Description: Binding affinity to Lactococcus lactis MG1363 N-terminal His8-tagged ThiT His125Ala mutant expressed in Lactococcus lactis NZ9000 by isothermal calorimetric titration method.
Sequence of Thiamine transporter ThiT (Lactococcus lactis subsp. cremoris (strain MG1363), UniProt A2RI47, H125A) (A2RI47 whole entry H125A): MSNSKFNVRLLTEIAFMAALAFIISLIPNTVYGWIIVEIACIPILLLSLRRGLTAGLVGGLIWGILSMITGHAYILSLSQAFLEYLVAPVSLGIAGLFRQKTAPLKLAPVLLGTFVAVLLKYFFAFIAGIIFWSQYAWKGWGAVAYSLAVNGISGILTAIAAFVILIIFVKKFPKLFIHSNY

Sequence of Thiamine transporter ThiT (Lactococcus lactis subsp. cremoris (strain MG1363), UniProt A2RI47, E84Q) (A2RI47 whole entry E84Q): as the sequence (A2RI47 whole entry H125A) above, with E84Q, A125H counted along it
Sequence of Thiamine transporter ThiT (Lactococcus lactis subsp. cremoris (strain MG1363), UniProt A2RI47, H125N) (A2RI47 whole entry H125N): as the sequence (A2RI47 whole entry H125A) above, with A125N counted along it
Sequence of Thiamine transporter ThiT (Lactococcus lactis subsp. cremoris (strain MG1363), UniProt A2RI47, W34A) (A2RI47 whole entry W34A): as the sequence (A2RI47 whole entry H125A) above, with W34A, A125H counted along it
Sequence of Thiamine transporter ThiT (Lactococcus lactis subsp. cremoris (strain MG1363), UniProt A2RI47, E84A) (A2RI47 whole entry E84A): as the sequence (A2RI47 whole entry H125A) above, with E84A, A125H counted along it
Sequence of Thiamine transporter ThiT (Lactococcus lactis subsp. cremoris (strain MG1363), UniProt A2RI47, E84D) (A2RI47 whole entry E84D): as the sequence (A2RI47 whole entry H125A) above, with E84D, A125H counted along it

For the compound `Cc1ncc(Cc2csc(COP(=O)(O)OP(=O)(O)O)c2C)c(N)n1`, binding in assay [1] was put at a Kd of 209 nM. Same read-out and setting: the value for `Cc1ncc(C[n+]2cccc(CCO)c2C)c(N)n1` was 0.18 nM; that for `Cc1ncc(C[n+]2csc(CCO[P@](=O)(O)OP(=O)(O)O)c2C)c(N)n1` [COCARBOXYLASE] was 1.6 nM. The same measure, in the same setting: the value for `Cc1ncc(Cc2csc(CCOC(=O)c3c[nH]c4ccccc34)c2C)c(N)n1` was 20.1 nM. With `Cc1ncc(Cn2cc(CCO)nn2)c(N)n1`, in assay [2], the Kd – broadly, the free concentration of one partner at which half of the binding sites on the other are occupied at equilibrium, for simple one-to-one binding – turned out to be 28600 nM. In the case of `Cc1ncc(C[n+]2csc(CCO)c2C)c(N)n1` [THIAMINE ION], the Kd in assay [3] is 13.6 nM; in assay [4], 0.35 nM; in assay [5], 2.21 nM; in assay [6], 13600 nM; in assay [1], 0.122 nM; in assay [7], 3650 nM. Further, binding in assay [8] was put at a Kd of 14.9 nM. In the case of `Cc1ncc(Cc2csc(CNCC(c3ccccc3)c3ccccc3)c2C)c(N)n1`, the Kd in assay [1] turned out to be 168 nM. In the case of `Cc1ncc(Cc2cccc(CCO)c2)c(N)n1`, the affinity in assay [1], expressed as Kd, was 266 nM. The same measure, in the same setting: the value for `Cc1ncc(Cc2csc(CCS[C@@H]3O[C@H](CO)[C@@H](O)[C@H](O)[C@H]3O)c2C)c(N)n1` was 183 nM. Take `Cc1cc(CO)cc(Cc2cnc(C)nc2N)c1`: the Kd in assay [2] was found to be 1990 nM. `Cc1ncc(Cc2csc(COCc3ccccc3)c2C)c(N)n1` had a Kd in assay [1] of 40.3 nM. Turning to `Cc1ncc(Cc2csc(CNCC34CC5CC(CC(C5)C3)C4)c2C)c(N)n1`, the Kd in assay [2] came to 49800 nM. Take `Cc1ncc(Cc2cccc(CO)c2)c(N)n1`: the Kd in assay [1] turned out to be 528 nM.

Turning to `Cc1ncc(Cc2csc(CNCc3ccccn3)c2C)c(N)n1`, in assay [1], the Kd was 96.7 nM. With `Cc1ncc(Cc2cc(CO)cc(C(F)(F)F)c2)c(N)n1`, the Kd in assay [2] is 2300 nM.
